These are literature values, as cited in patent publication US20230102999A1, “DEUTERATED NICLOSAMIDE” (First Wave Bio, Inc., priority 2020, published 2023).

The conditions of data set [1]: at 20° C.

Counter-ions that a name gives are not always drawn.

With `O=C(Nc1ccc([N+](=O)[O-])cc1Cl)c1cc(Cl)ccc1O` [Niclosamide, 5-chloro-N-(2-chloro-4-nitrophenyl)-2-hydroxybenzamide], the water solubility in data set [1] (water) is 5 to 8 mg/L. The solubility in acetone result (acetone) is “soluble”. For the same molecule, for the setting “ether, ethanol and chloroform”, the “solubility in ether, ethanol and chloroform” value is on record as “sparingly soluble”.

In the case of `O=C(Nc1ccc([N+](=O)[O-])cc1Cl)c1cc(Cl)ccc1O` [ethanolamine salt, 5-chloro-salicyl-(2-chloro-4-nitro) anilide 2-aminoethanol salt], the “dissolves in distilled water” value in data set [1] (distilled water) is 180 to 280 mg/L.
